Test results from patent US20230104936A1, “TRPML MODULATORS” (Casma Therapeutics, Inc., priority 2019, published 2023).

System: TFEB
Experiment: TFEB nuclear translocation assay, HeLa wt cells
Assay type: cell-based
Details: Homo sapiens, HeLa, 2 h, 2 hrs compound treatment, Table 1 does not say HeLa wt or TRPML1 KO
How it was run: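 HeLa wt cells were treated with compound for 2 hrs at 37° C, then fixed in 4% PFA and immunostained for TFEB with an Alexa 488 secondary and Hoechst nuclear counterstain. Automated epifluorescence imaging at ×20 gave the ratio of nuclear TFEB intensity to a perinuclear ring region, from which AC50 was derived.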

Row | SMILES | AC50 [nM]
1 | CN(C)S(=O)(=O)c1ccc(S(=O)(=O)Nc2ccccc2N2CCC(C)(c3ccccc3Cl)CC2)cc1 [Compound A-183, N4-{2-[4-(2-chlorophenyl)-4-methylpiperidin-1-yl]phenyl}-N1,N1-dimethylbenzene-1,4-disulfonamide] | ≤ 2000
2 | CN1CCC2(CCN(c3ccccc3NS(=O)(=O)c3ccc(S(=O)(=O)N(C)C)cc3)CC2)C1 [Compound A-293, N1,N1-dimethyl-N4-(2-{2-methyl-2,8-diazaspiro[4.5]decan-8-yl}phenyl)benzene-1,4-disulfonamide] | ≥ 10000
3 | O=S(=O)(Nc1ccccc1N1CCC(c2ccc(F)cc2F)CC1)c1ccc(S(=O)(=O)C(F)(F)F)cc1 [Compound A-173, N-{2-[4-(2,4-difluorophenyl)piperidin-1-yl]phenyl}-4-trifluoromethanesulfonylbenzene-1-sulfonamide] | ≤ 2000
4 | C[C@@H]1CN(c2nn(S(=O)(=O)c3ccc(S(=O)(=O)N(C)C)cc3)c3ccccc23)C[C@H](C)C1(F)F [Compound A-968, 4-({3-[(3R,5S)-4,4-difluoro-3,5-dimethylpiperidin-1-yl]-1H-indazol-1-yl}sulfonyl)-N,N-dimethylbenzene-1-sulfonamide] | ≤ 2000
5 | COCC1(C)CCN(c2ccccc2NS(=O)(=O)c2ccc(C(F)F)cc2)CC1 [Compound A-620, 4-(difluoromethyl)-N-{2-[4-(methoxymethyl)-4-methylpiperidin-1-yl]phenyl}benzene-1-sulfonamide] | ≤ 2000
6 | CN(C)S(=O)(=O)c1ccc(S(=O)(=O)Nc2ccccc2N2CCC(COC(C)(C)C)CC2)cc1 [Compound A-494, N4-(2-{4-[(tert-butoxy)methyl]piperidin-1-yl}phenyl)-N1,N1-dimethylbenzene-1,4-disulfonamide] | ≤ 2000
7 | COCC1(C)CCN(c2ccccc2NS(=O)(=O)Cc2cccc(C)c2)CC1 [Compound A-593, N-{2-[4-(methoxymethyl)-4-methylpiperidin-1-yl]phenyl}-1-(3-methylphenyl)methanesulfonamide] | 2010 to 8000
8 | CN(C)S(=O)(=O)c1ccc(S(=O)(=O)Cc2ccccc2N2CCC(c3ccc(Cl)cc3F)CC2)cc1 [Compound A-214, 4-((2-(4-(4-chloro-2-fluorophenyl)piperidin-1-yl)benzyl)sulfonyl)-N,N-dimethylbenzenesulfonamide] | ≤ 2000
9 | CN(C)S(=O)(=O)c1ccc(S(=O)(=O)Nc2ccccc2N2CCN(C(=O)C(C)(C)F)CC2)cc1 [Compound A-432, N4-{2-[4-(2-fluoro-2-methylpropanoyl)piperazin-1-yl]phenyl}-N1,N1-dimethylbenzene-1,4-disulfonamide] | 2010 to 8000
10 | CC(c1cncc(F)c1N1CCC(CN2CCC(F)(F)CC2)CC1)S(=O)(=O)c1ccc(S(=O)(=O)N(C)C)cc1 (stereo not drawn) [Compound A-996, 4-[1-(4-{4-[(4,4-difluoropiperidin-1-yl)methyl]piperidin-1-yl}-5-fluoropyridin-3-yl)ethanesulfonyl]-N,N-dimethylbenzene-1-sulfonamide] | ≤ 2000
11 | CN(C)S(=O)(=O)c1ccc(S(=O)(=O)Nc2cccc(Cl)c2N2CCOCC2)nc1 [Compound A-340, N2-[3-chloro-2-(morpholin-4-yl)phenyl]-N5,N5-dimethylpyridine-2,5-disulfonamide] | ≥ 10000
12 | COCC1(C(F)(F)F)CCN(c2ccccc2NS(=O)(=O)c2ccc(S(=O)(=O)N(C)C)cc2)CC1 [Compound A-777, N4-2-[4-(methoxymethyl)-4-(trifluoromethyl)piperidin-1-yl]phenyl-N1,N1-dimethylbenzene-1,4-disulfonamide] | ≤ 2000
13 | COCC1(C)CCN(c2ccccc2NS(=O)(=O)c2ccc3c(c2)CCOC3)CC1 [Compound A-727, N-{2-[4-(methoxymethyl)-4-methylpiperidin-1-yl]phenyl}-3,4-dihydro-1H-2-benzopyran-6-sulfonamide] | 2010 to 8000
14 | CN1CC2(CCN(c3ccccc3NS(=O)(=O)c3ccc(S(=O)(=O)N(C)C)cc3)CC2)c2ccc(F)cc21 [Compound A-215, N4-(2-{6-fluoro-1-methyl-1,2-dihydrospiro[indole-3,4′-piperidin]-1′-yl}phenyl)-N1,N1-dimethylbenzene-1,4-disulfonamide] | ≤ 2000
15 | CN(C)S(=O)(=O)c1ccc(S(=O)(=O)Nc2ccccc2N2CCN(C(=O)C34CCC(CC3)C4)CC2)cc1 [Compound A-460, N4-[2-(4-{bicyclo[2.2.1]heptane-1-carbonyl}piperazin-1-yl)phenyl]-N1,N1-dimethylbenzene-1,4-disulfonamide] | ≤ 2000
16 | COc1ccc(S(=O)(=O)Nc2ccccc2N2CCC(O)(c3ccc(F)cn3)CC2)cc1 [Compound A-409, N-{2-[4-(5-fluoropyridin-2-yl)-4-hydroxypiperidin-1-yl]phenyl}-4-methoxybenzene-1-sulfonamide] | ≥ 10000
17 | CN(C)S(=N)(=O)c1ccc(S(=O)(=O)Nc2cccc(F)c2N2CCC(C3(N4CCOCC4)CC3)CC2)cc1 (stereo not drawn) [Compound A-858, 4-[(3-fluoro-2-{4-[1-(morpholin-4-yl)cyclopropyl]piperidin-1-yl}phenyl)sulfamoyl]-N,N-dimethylbenzene-1-sulfonoimidamide] | ≤ 2000
18 | CS(=N)(=O)c1ccc(S(=O)(=O)Nc2ccccc2N2CCC(c3c(F)cccc3F)CC2)cc1 (stereo not drawn) [Compound A-166, N-{2-[4-(2,6-difluorophenyl)piperidin-1-yl]phenyl}-4-[imino(methyl)oxo-λ^6-sulfanyl]benzene-1-sulfonamide] | 2010 to 8000
19 | COCC1(C)CCN(c2ccccc2NS(=O)(=O)Cc2ccc3c(c2)COC3)CC1 [Compound A-612, 1-(1,3-dihydro-2-benzofuran-5-yl)-N-{2-[4-(methoxymethyl)-4-methylpiperidin-1-yl]phenyl}methanesulfonamide] | 2010 to 8000
20 | CC(c1cccc(F)c1N1CCCCC1)S(=O)(=O)c1ccc(S(=O)(=O)N(C)C)nn1 (stereo not drawn) [Compound A-941, 6-{1-[3-fluoro-2-(piperidin-1-yl)phenyl]ethanesulfonyl}-N,N-dimethylpyridazine-3-sulfonamide] | 2010 to 8000
21 | C[C@@H]1CN(c2ccccc2NS(=O)(=O)c2ccc(S(=O)(=O)N(C)C)cc2)C[C@H](C)N1c1ccc(Cl)cn1 [Compound A-121, N4-{2-[(3R,5S)-4-(5-chloropyridin-2-yl)-3,5-dimethylpiperazin-1-yl]phenyl}-N1,N1-dimethylbenzene-1,4-disulfonamide] | ≤ 2000
22 | Cc1ccc([S+]([O-])c2ccccc2N2CCC(c3ccc(Cl)cc3F)CC2)cc1 (stereo not drawn) [Compound A-144, 4-(4-chloro-2-fluorophenyl)-1-(2-(p-tolylsulfinyl)phenyl)piperidine] | ≥ 10000
23 | C[C@@H]1CN(C2CCN(c3c(F)cccc3NS(=O)(=O)c3ccc(S(=O)(=O)N(C)C)cc3)CC2)C[C@H](C)O1 [Compound A-868, N4-(2-{4-[(2R,6S)-2,6-dimethylmorpholin-4-yl]piperidin-1-yl}-3-fluorophenyl)-N1,N1-dimethylbenzene-1,4-disulfonamide] | ≤ 2000
24 | CP(C)(=O)c1ccc(S(=O)(=O)Nc2cc(Cl)ccc2N2CCOCC2)cc1 [Compound A-284, N-[5-chloro-2-(morpholin-4-yl)phenyl]-4-(dimethylphosphoryl)benzene-1-sulfonamide] | ≥ 10000
